This passage reports EC50 results from patent publication US20080125424A1, “Derivatives of urea and related diamines, methods for their manufacture, and uses therefor” (priority 2006, published 2008).

Counter-ions that a name gives are not always drawn.

The assay addresses T1, human parathyroid cell Ca2+ receptor (hPCaR) (Homo sapiens, UniProt P41180).
T1 construct: expressed in transfected cells
T1 sequence (P41180 20-1078): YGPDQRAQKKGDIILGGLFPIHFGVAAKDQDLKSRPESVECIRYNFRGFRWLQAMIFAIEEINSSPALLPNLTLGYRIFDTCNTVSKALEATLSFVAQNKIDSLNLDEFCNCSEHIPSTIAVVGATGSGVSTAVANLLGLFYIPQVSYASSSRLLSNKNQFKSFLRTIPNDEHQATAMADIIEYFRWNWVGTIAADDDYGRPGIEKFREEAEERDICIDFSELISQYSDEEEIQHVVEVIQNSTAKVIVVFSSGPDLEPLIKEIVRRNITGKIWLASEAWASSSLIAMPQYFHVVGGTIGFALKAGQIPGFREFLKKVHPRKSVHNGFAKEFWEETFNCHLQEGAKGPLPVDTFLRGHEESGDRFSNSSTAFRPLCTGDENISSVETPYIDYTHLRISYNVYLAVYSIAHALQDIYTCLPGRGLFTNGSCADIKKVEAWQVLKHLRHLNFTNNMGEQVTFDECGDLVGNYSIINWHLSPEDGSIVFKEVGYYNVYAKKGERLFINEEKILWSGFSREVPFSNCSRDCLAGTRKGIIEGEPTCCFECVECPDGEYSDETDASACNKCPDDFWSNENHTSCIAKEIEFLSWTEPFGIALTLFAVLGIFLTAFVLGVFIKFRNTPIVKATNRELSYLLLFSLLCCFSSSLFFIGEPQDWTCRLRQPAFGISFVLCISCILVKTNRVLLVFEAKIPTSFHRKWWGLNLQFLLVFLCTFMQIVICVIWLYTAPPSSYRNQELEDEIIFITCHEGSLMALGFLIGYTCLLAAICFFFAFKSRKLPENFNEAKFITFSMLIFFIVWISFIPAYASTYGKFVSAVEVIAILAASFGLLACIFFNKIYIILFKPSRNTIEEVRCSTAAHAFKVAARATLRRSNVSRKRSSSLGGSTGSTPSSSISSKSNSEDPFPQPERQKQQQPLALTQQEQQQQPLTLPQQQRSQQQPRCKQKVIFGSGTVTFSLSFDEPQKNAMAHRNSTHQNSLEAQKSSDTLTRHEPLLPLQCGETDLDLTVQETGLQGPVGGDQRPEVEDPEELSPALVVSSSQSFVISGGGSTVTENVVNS
The assay can be described thus: [Ca2+]i fluorescence assay in HEK 293 4.0-7 cells expressing hPCaR. In kind it is cell-based. As to conditions: buffer with 1 mM CaCl2. The method, then:
The activities of the compounds of the present invention on calcium receptors were measured. In one embodiment, the measurement was performed in accordance with the method described in Example 4 of Nemeth et al., PCT/US95/13704 (International Publication No. WO96/12697) herein incorporated by reference.
A 4.0-kb NotI-HindIII fragment of the human parathyroid cell Ca^2+ receptor (hPCaR) cDNA was subcloned into the mammalian expression vector pCEP4 (Invitrogen) containing the hygromycin-resistant gene as a selectable marker. This plasmid was transfected into HEK 293 cells by calcium phosphate precipitation. Transfected cells were grown in Dulbecco's modified Eagle's medium containing 10% fetal bovine serum and hygromycin (200 μg/mL). Hygromycin-resistant colonies were subcloned and assayed for hPCaR mRNA by solution hybridization using a ^32P-labeled RNA probe complementary to the (4.0 kb) hPCaR sequence (Garrett, et al., J. Biol. Chem. 270, 12919-12925 (1995)). Clone 7 was used to assess the effects of compounds on [Ca^2+]i. This stably transfected cell line was termed HEK 293 4.0-7. For measurements of [Ca^2+]i, the cells were recovered from tissue culture flasks by brief treatment with Versene (Invitrogen; Containing 0.2 g/L EDTA.4Na in phosphate-buffered saline) and then seeded in collagen coated 384-well plates (BD Biosciences) at 20K cells per well in the growth media (same as above). Cells were grown in 37c TC incubator overnight. Then, the media was discarded and cells were loaded with 1× dye from Ca^2+ Assay Kit I (BD Biosciences) in parathyroid cell buffer (126 mM NaCl, 4 mM KCl, 1 mM MgSO4, 0.7 mM K2HPO4/KH2PO4, 20 mM HEPES.NaOH (pH 7.45)) containing 0.5% BSA and 1 mM CaCl2. Cells were loaded at room temperature for 90 minutes. Each test compound was added to the cells and the fluorescence was recorded by using excitation and emission wavelengths of 485 and 530 nm, respectively.
The EC50 is the concentration giving half of the maximal effect. Low values mean greater potency, high ones weaker potency. `CS(=O)(=O)Nc1ccc(-c2nc(NC(=O)N(CCN[C@H]3CCCNC3)CCC(c3ccccc3)c3ccccc3)sc2Cl)cc1` [Example 141, (S)-3-(5-chloro-4-(4-(methylsulfonamido)phenyl)thiazol-2-yl)-1-(3,3-diphenylpropyl)-1-(2-(piperidin-3-ylamino)ethyl)urea] gave an EC50 of under 100 nM. The compound `C[C@H]1CNCCN1C(=O)CCCN(CCC(c1ccccc1)c1ccccc1)C(=O)Nc1nc(-c2ccccc2)cs1` [Example 100, (S)-1-(3,3-diphenylpropyl)-1-(4-(2-methylpiperazin-1-yl)-4-oxobutyl)-3-(4-phenylthiazol-2-yl)urea] yielded an EC50 of 100 to 1000 nM. Compound `N#Cc1ccc(S(=O)(=O)NCCN(CCC(c2ccccc2)c2ccccc2)C(=O)Nc2nc3ccccc3s2)cc1` [Example 169, N-{2-[3-Benzothiazol-2-yl-1-(3,3-diphenyl-propyl)-ureido]-ethyl}-4-cyanobenzenesulfonamide] displayed an EC50 of 1000 to 5000 nM. Compound `O=C(CCCN(CCC(c1ccccc1)c1ccccc1)C(=O)Nc1nc2ccccc2s1)N1CCOCC1` [Example 94, 3-(benzo[d]thiazol-2-yl)-1-(3,3-diphenylpropyl)-1-(4-morpholino-4-oxobutyl)urea] gave an EC50 of 100 to 1000 nM. For `O=C(Nc1nc2ccccc2s1)N(CCNC1CCOCC1)CCC(c1ccccc1)c1ccccc1` [Example 156, 3-Benzothiazol-2-yl-1-(3,3-diphenyl-propyl)-1-[2-(tetrahydro-pyran-4-ylamino)-ethyl]-urea], the EC50 lay in the range of 1000 to 5000 nM.

In the case of `NC(=O)CCN(CCC(c1ccccc1)c1ccccc1)C(=O)Nc1nc2ccccc2s1` [Example 109, 1-(3-amino-3-oxopropyl)-3-(benzo[d]thiazol-2-yl)-1-(3,3-diphenylpropyl)urea], the 50% effective concentration (EC50) lay within 100 to 1000 nM. As to `CC(C)(C)OC(=O)CCCN(CCC(c1ccccc1)c1ccccc1)C(=O)Nc1nc2ccccc2s1` [Example 101, tert-butyl 4-(3-(benzo[d]thiazol-2-yl)-1-(3,3-diphenylpropyl)ureido)butanoate], the EC50 was in the range of 100 to 1000 nM.

Turning to `CS(=O)(=O)c1ccc(-c2csc(NC(=O)N(CCC(=O)O)CCC(c3ccccc3)c3ccccc3)n2)cc1` [Example 119, 3-(1-(3,3-diphenylpropyl)-3-(4-(4-(methylsulfonyl)phenyl)thiazol-2-yl)ureido)propanoic acid], the concentration giving a half-maximal response (EC50) was 100 to 1000 nM. As to `O=C(CCCN(CCC(c1ccccc1)c1ccccc1)C(=O)Nc1nc2ccccc2s1)NC1CCCCC1` [Example 97, 3-(benzo[d]thiazol-2-yl)-1-(4-(cyclohexylamino)-4-oxobutyl)-1-(3,3-diphenylpropyl)urea], the EC50 was 100 to 1000 nM. In turn, `O=C(O)CNCCN(CCC(c1ccccc1)c1ccccc1)C(=O)Nc1nc2ccccc2s1` [Example 161, {2-[3-Benzothiazol-2-yl-1-(3,3-diphenyl-propyl)-ureido]-ethylamino}-acetic acid] had an EC50 of 100 to 1000 nM.

`NC(=O)CCCN(CCC(c1ccccc1)c1ccccc1)C(=O)Nc1nc(-c2ccccc2)c(Cl)s1` [Example 81, 1-(4-amino-4-oxobutyl)-3-(5-chloro-4-phenylthiazol-2-yl)-1-(3,3-diphenylpropyl)urea] had an EC50 of under 100 nM.

`CCOC(=O)CCCN(CCC(c1ccccc1)c1ccccc1)C(=O)Nc1nc2ccccc2s1` [Example 116, ethyl 4-(3-(benzo[d]thiazol-2-yl)-1-(3,3-diphenylpropyl)ureido)butanoate] returned a concentration for a half-maximal effect (EC50) of 100 to 1000 nM. As to `CS(=O)(=O)c1ccc(-c2nc(NC(=O)N(CCCC(=O)O)CCC(c3ccccc3)c3ccccc3)sc2Cl)cc1` [Example 72, 4-(3-(5-chloro-4-(4-(methylsulfonyl)phenyl)thiazol-2-yl)-1-(3,3-diphenylpropyl)ureido)butanoic acid], the EC50 was under 100 nM. For `CSCCN(CCC(c1ccccc1)c1ccccc1)C(=O)Nc1nc(-c2ccc(NS(C)(=O)=O)cc2)c(Cl)s1` [Example 137, 3-(5-chloro-4-(4-(methylsulfonamido)phenyl)thiazol-2-yl)-1-(3,3-diphenylpropyl)-1-(2-(methylthio)ethyl)urea], the EC50 was under 100 nM.

For `NS(=O)(=O)c1ccc(-c2csc(NC(=O)N(CCCC(=O)O)CCC(c3ccccc3)c3ccccc3)n2)cc1` [Example 124], the EC50 is under 100 nM. Compound `CN(CCN(CCC(c1ccccc1)c1ccccc1)C(=O)Nc1nc(-c2ccccc2)cs1)C1CCCCC1` [Example 164, 1-[2-(Cyclohexyl-methyl-amino)-ethyl]-1-(3,3-diphenyl-propyl)-3-(4-phenyl-thiazol-2-yl)-urea] displayed an EC50 of 100 to 1000 nM. In turn, `N#Cc1ccc(-c2nc(NC(=O)N(CCCC(=O)O)CCC(c3ccccc3)c3ccccc3)sc2Cl)cc1` [Example 92, 4-(3-(5-chloro-4-(4-cyanophenyl)thiazol-2-yl)-1-(3,3-diphenylpropyl)ureido)butanoic acid] showed an EC50 of 100 to 1000 nM. With `CN(C)CC(C)(C)CNCCN(CCC(c1ccccc1)c1ccccc1)C(=O)Nc1nc2ccccc2s1` [Example 150, 3-Benzothiazol-2-yl-1-[2-(3-dimethylamino-2,2-dimethyl-propylamino)-ethyl]-1-(3,3-diphenyl-propyl)-urea trihydrochloride], the EC50 was in the range of 1000 to 5000 nM.

For `CS(=O)(=O)NCCN(CCC(c1ccccc1)c1ccccc1)C(=O)Nc1nc(-c2ccc(NS(C)(=O)=O)cc2)c(Cl)s1` [Example 139, 3-(5-chloro-4-(4-(methylsulfonamido)phenyl)thiazol-2-yl)-1-(3,3-diphenylpropyl)-1-(2-(methylsulfonamido)ethyl)urea], the half-maximal effective concentration (EC50) was under 100 nM.

The compound `O=C(O)CCN(CCC(c1ccccc1)c1ccccc1)C(=O)Nc1nc2ccccc2s1` [Example 114, 3-(3-(benzo[d]thiazol-2-yl)-1-(3,3-diphenylpropyl)ureido)propanoic acid] yielded an EC50 of 100 to 1000 nM. For the compound `O=C(CCN(CCC(c1ccccc1)c1ccccc1)C(=O)Nc1nc2ccccc2s1)NC1CCCCC1` [Example 112, 3-(benzo[d]thiazol-2-yl)-1-(3-(cyclohexylamino)-3-oxopropyl)-1-(3,3-diphenylpropyl)urea], the EC50 lay within 100 to 1000 nM. Then `CS(=O)(=O)Nc1ccc(-c2csc(NC(=O)N(CCNC(=O)C3CCCNC3)CCC(c3ccccc3)c3ccccc3)n2)cc1` (stereo not shown) [Example 130, 1-(3,3-diphenylpropyl)-3-(4-(4-(methylsulfonamido)phenyl)thiazol-2-yl)-1-(2-(piperidine-3-carboxamido)ethyl)urea], with under 100 nM. For the compound `O=C(Nc1nc2ccccc2s1)N(CCO)CCC(c1ccccc1)c1ccccc1` [Example 175, 3-Benzothiazol-2-yl-1-(3,3-diphenylpropyl)-1-(2-hydroxy-ethyl)-urea], the concentration for a half-maximal effect (EC50) fell in the range of 100 to 1000 nM. For `CS(=O)(=O)Nc1ccc(-c2csc(NC(=O)N(CCCC(N)=O)CCC(c3ccccc3)c3ccccc3)n2)cc1` [Example 68, 1-(4-amino-4-oxobutyl)-1-(3,3-diphenylpropyl)-3-(4-(4-(methylsulfonamido)phenyl)thiazol-2-yl)urea], the EC50 is under 100 nM. In the case of `O=C(NCCCCN(CCC(c1ccccc1)c1ccccc1)C(=O)Nc1nc2ccccc2s1)C1CCCCN1` (stereo not shown) [Example 128, 3-(benzo[d]thiazol-2-yl)-1-(3,3-diphenylpropyl)-1-(4-(piperidine-2-carboxamido)butyl)urea], the concentration for a half-maximal effect (EC50) was under 100 nM.
